Data as given in PubChem BioAssay AID256 (DTP/NCI, 2004).
“And” between values parts separate entries of the source, which are not always exact repeats. Equal entries are not always repeated. Inconclusive results and toxic doses are left out. Rule for the calls: active = survival T/C of 150% or more; inactive = T/C below 125% in these data.

Test system: CD2F1 mice, L1210 leukemia ip, survival T/C
Assay: NCI In Vivo Anticancer Drug Screen. Data for tumor model L1210 Leukemia (intraperitoneal) in CD2F1 (CDF1) mice
Details: endpoint: mean survival time, higher = longer survival
How it was run: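 Each value reflects a quotient of treated over vehicle control outcomes in mice with a transplanted tumor.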

[1] = dose: 100.0 mg/kg/injection, schedule: Q04DX003 (ip), vehicle: saline with Tween-80
[2] = dose: 200.0 mg/kg/injection, schedule: Q04DX003 (ip), vehicle: saline with Tween-80
[3] = dose: 400.0 mg/kg/injection, schedule: Q04DX003 (ip), vehicle: saline with Tween-80
[4] = dose: 100.0 mg/kg/injection, schedule: Q04DX002 (ip), vehicle: saline with Tween-80
[5] = dose: 400.0 mg/kg/injection, schedule: Q04DX002 (ip), vehicle: saline with Tween-80
[6] = dose: 100.0 mg/kg/injection, schedule: Q01DX001 (ip), vehicle: saline with Tween-80
[7] = dose: 200.0 mg/kg/injection, schedule: Q01DX001 (ip), vehicle: saline with Tween-80
[8] = dose: 400.0 mg/kg/injection, schedule: Q01DX001 (ip), vehicle: saline with Tween-80
[9] = dose: 100.0 mg/kg/injection, schedule: Q01DX009 (ip), vehicle: saline with Tween-80
[10] = dose: 200.0 mg/kg/injection, schedule: Q01DX009 (ip), vehicle: saline with Tween-80
[11] = dose: 400.0 mg/kg/injection, schedule: Q01DX009 (ip), vehicle: saline with Tween-80
[12] = dose: 12.5 mg/kg/injection, schedule: Q01DX009 (ip), vehicle: saline
[13] = dose: 25.0 mg/kg/injection, schedule: Q01DX009 (ip), vehicle: saline
[14] = dose: 50.0 mg/kg/injection, schedule: Q01DX009 (ip), vehicle: saline
[15] = dose: 100.0 mg/kg/injection, schedule: Q01DX009 (ip), vehicle: saline
[16] = dose: 25.0 mg/kg/injection, schedule: Q04DX003 (ip), vehicle: saline with Tween-80
[17] = dose: 12.5 mg/kg/injection, schedule: Q01DX009 (ip), vehicle: Klucel (hydroxypropylcellulose) (HPC)
[18] = dose: 25.0 mg/kg/injection, schedule: Q01DX009 (ip), vehicle: Klucel (hydroxypropylcellulose) (HPC)
[19] = dose: 50.0 mg/kg/injection, schedule: Q01DX009 (ip), vehicle: Klucel (hydroxypropylcellulose) (HPC)
[20] = dose: 100.0 mg/kg/injection, schedule: Q04DX003 (ip), vehicle: saline

Measured: T/C

CC1(C(N)=O)OC12CCCCC2 (stereo not given)
inactive: [1] 95 % of control | [2] 97 % of control | [3] 97 % of control

ClCCn1c(CCl)nc2ccccc21
inactive: dose: 10.0 mg/kg/injection, schedule: Q01DX009 (ip), vehicle: saline 98 % of control | dose: 20.0 mg/kg/injection, schedule: Q01DX009 (ip), vehicle: saline 94 % of control

CC1SC(C)SC(C)S1 (stereo not given)
inactive: dose: 75.0 mg/kg/injection, schedule: Q01DX001 (ip), vehicle: saline with Tween-80 98 % of control | dose: 150.0 mg/kg/injection, schedule: Q01DX001 (ip), vehicle: saline with Tween-80 98 % of control | dose: 300.0 mg/kg/injection, schedule: Q01DX001 (ip), vehicle: saline with Tween-80 102 % of control

COC(=O)c1ccc(SCC2=Nc3c(nc(N)[nH]c3=O)NCC2)cc1
inactive: dose: 0.38 mg/kg/injection, schedule: Q01DX009 (ip), vehicle: distilled water + Tween-80 100 % of control | dose: 0.75 mg/kg/injection, schedule: Q01DX009 (ip), vehicle: distilled water + Tween-80 101 % of control | dose: 1.5 mg/kg/injection, schedule: Q01DX009 (ip), vehicle: distilled water + Tween-80 105 % of control | dose: 3.0 mg/kg/injection, schedule: Q01DX009 (ip), vehicle: distilled water + Tween-80 100 % of control | dose: 6.0 mg/kg/injection, schedule: Q01DX009 (ip), vehicle: distilled water + Tween-80 101 % of control | dose: 12.0 mg/kg/injection, schedule: Q01DX009 (ip), vehicle: distilled water + Tween-80 93 % of control | dose: 48.0 mg/kg/injection, schedule: Q01DX009 (ip), vehicle: distilled water + Tween-80 88 % of control

CN(C)N=C1CCCCC1
inactive: dose: 75.0 mg/kg/injection, schedule: Q01DX001 (ip), vehicle: saline 96 % of control | dose: 150.0 mg/kg/injection, schedule: Q01DX001 (ip), vehicle: saline 98 % of control

[CH3][Sb]([CH3])([CH3])([O]C(=O)C(Cl)(Cl)Cl)[O]C(=O)C(Cl)(Cl)Cl
inactive: [4] 98 % of control | dose: 200.0 mg/kg/injection, schedule: Q04DX002 (ip), vehicle: saline with Tween-80 107 % of control | [5] 103 % of control

O=C(COc1ccc(Cl)c(Cl)c1)Nc1cccc(S(=O)(=O)F)c1
inactive: [6] 95 % of control | [7] 95 % of control | [8] 91 % of control

O=C(OC1C=Cc2ccccc21)c1ccc([N+](=O)[O-])cc1 (stereo not given)
inactive: [6] 97 % of control | [7] 90 % of control | [8] 97 % of control

Cc1c(C(=O)c2no[n+]([O-])c2C(=O)c2c(C)c([N+](=O)[O-])c(C)c([N+](=O)[O-])c2C)c(C)c([N+](=O)[O-])c(C)c1[N+](=O)[O-]
inactive: [9] 87 % of control | [1] 102 % of control | [10] 96 % of control | [2] 88 % of control | [11] 88 % of control | [3] 98 % of control

O=C(Nc1ccc(Cl)c(Cl)c1)c1ccc(Cl)c(Cl)c1
inactive: [4] 95 % of control | [5] 91 % of control

O=[N+]([O-])c1ccc2nsnc2c1
inactive: [6] 103 % of control | [9] 103 % of control | [7] 106 % of control | [10] 114 % of control | [8] 107 % of control

O=C(O)C(CNC(=O)C(F)(F)F)Cc1ccc([N+](=O)[O-])cc1 (stereo not given)
inactive: [12] 98 % of control and 101 % of control | [13] 98 % of control | [14] 97 % of control and 107 % of control | [15] 103 % of control

NC(N)=NC(=S)Nc1ccccc1
inactive: [6] 118 % of control | [7] 103 % of control | [8] 118 % of control

O=C(O)/C=C/C(=O)c1ccccc1
inactive: dose: 12.5 mg/kg/injection, schedule: Q04DX003 (ip), vehicle: saline with Tween-80 104 % of control | [16] 98 % of control

CCS(=O)(=O)OC1CCCCCCC1NC(=O)c1ccccc1 (stereo not given)
inactive: dose: 50.0 mg/kg/injection, schedule: Q01DX009 (ip), vehicle: saline with Tween-80 100 % of control | [9] 97 % of control | [1] 104 % of control | [2] 98 % of control

O=c1[nH]c(=S)n2ncnc2[nH]1
inactive: dose: 100.0 mg/kg/injection, schedule: Q01DX009 (ip), vehicle: acetone 97 % of control | dose: 200.0 mg/kg/injection, schedule: Q01DX009 (ip), vehicle: acetone 103 % of control | dose: 400.0 mg/kg/injection, schedule: Q01DX009 (ip), vehicle: acetone 95 % of control

NN(C(=O)c1ccc(Cl)cc1)c1ccccc1
inactive: [1] 95 % of control | [2] 92 % of control | [3] 97 % of control

C[N+](C)(C)c1cc2c(nn1)Nc1ccccc1S2
inactive: dose: 3.12 mg/kg/injection, schedule: Q01DX009 (ip), vehicle: Klucel (hydroxypropylcellulose) (HPC) 97 % of control and 100 % of control | dose: 6.25 mg/kg/injection, schedule: Q01DX009 (ip), vehicle: Klucel (hydroxypropylcellulose) (HPC) 102 % of control and 103 % of control | [17] 87 % of control and 100 % of control | [18] 102 % of control and 103 % of control | dose: 25.0 mg/kg/injection, schedule: Q04DX003 (ip), vehicle: saline 111 % of control | [19] 94 % of control and 100 % of control | dose: 50.0 mg/kg/injection, schedule: Q04DX003 (ip), vehicle: saline 117 % of control | dose: 100.0 mg/kg/injection, schedule: Q01DX009 (ip), vehicle: Klucel (hydroxypropylcellulose) (HPC) 96 % of control and 103 % of control | [20] 109 % of control

c1ccc(OCCCNc2ccccn2)cc1
inactive: [16] 92 % of control | dose: 50.0 mg/kg/injection, schedule: Q04DX003 (ip), vehicle: saline with Tween-80 103 % of control | [1] 92 % of control and 97 % of control

O=C(NCCc1nc(-c2nc(C(=O)O)cs2)cs1)c1ccccc1
inactive: [9] 96 % of control | [10] 96 % of control | [11] 96 % of control

Nc1ncnc2nc(SCc3ccccc3)[nH]c12
inactive: [17] 112 % of control | [18] 104 % of control | [19] 100 % of control | dose: 100.0 mg/kg/injection, schedule: Q01DX001 (ip), vehicle: Klucel (hydroxypropylcellulose) (HPC) 90 % of control

Cc1cc(O)c(N=Nc2ccc(C(=O)O)cc2)cc1C
inactive: [12] 106 % of control | dose: 12.5 mg/kg/injection, schedule: Q01DX009 (ip), vehicle: suspension in saline 97 % of control | [13] 110 % of control | dose: 25.0 mg/kg/injection, schedule: Q01DX009 (ip), vehicle: suspension in saline 101 % of control | [14] 111 % of control | dose: 50.0 mg/kg/injection, schedule: Q01DX009 (ip), vehicle: suspension in saline 95 % of control | [15] 94 % of control | dose: 100.0 mg/kg/injection, schedule: Q01DX009 (ip), vehicle: suspension in saline 94 % of control | dose: 200.0 mg/kg/injection, schedule: Q01DX009 (ip), vehicle: suspension in saline 97 % of control | dose: 400.0 mg/kg/injection, schedule: Q01DX009 (ip), vehicle: saline 93 % of control | dose: 400.0 mg/kg/injection, schedule: Q01DX009 (ip), vehicle: suspension in saline 101 % of control

CC(=O)OCc1cc(C(C)(C)C)c(O)c(C(C)(C)C)c1
inactive: dose: 100.0 mg/kg/injection, schedule: Q04DX003 (ip), vehicle: Klucel (hydroxypropylcellulose) (HPC) 101 % of control | dose: 200.0 mg/kg/injection, schedule: Q04DX003 (ip), vehicle: Klucel (hydroxypropylcellulose) (HPC) 116 % of control | dose: 400.0 mg/kg/injection, schedule: Q04DX003 (ip), vehicle: Klucel (hydroxypropylcellulose) (HPC) 115 % of control

Cc1cccc(Cl)c1NC(=O)Nc1cc(Cl)ccc1Oc1c(Cl)cc(Cl)cc1S(=O)(=O)O
inactive: [9] 90 % of control | [10] 90 % of control

CC(C)C(Br)C(Br)c1ccccc1 (stereo not given)
inactive: [20] 96 % of control | dose: 200.0 mg/kg/injection, schedule: Q04DX003 (ip), vehicle: saline 102 % of control
